According to PubChem BioAssay (NCI):
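Following 48 hours of exposure in 96-well plates, responses at five concentrations were used to interpolate endpoints linearly. TGI: concentration producing complete growth inhibition.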

Key:
Assay in all cases: NCI tumour cell line growth inhibition, 48 h
MCF7 breast = test system: MCF7 breast
CCRF-CEM leukemia = test system: CCRF-CEM leukemia
MDA-MB-435 = test system: MDA-MB-435
SK-OV-3 ovarian = test system: SK-OV-3 ovarian
OVCAR-5 ovarian = test system: OVCAR-5 ovarian
SF-295 CNS = test system: SF-295 CNS
IGROV1 ovarian = test system: IGROV1 ovarian
BT-549 breast = test system: BT-549 breast
EKVX NSCLC = test system: EKVX NSCLC
MDA-MB-231 breast = test system: MDA-MB-231 breast
SW-620 colon = test system: SW-620 colon
MDA-N = test system: MDA-N
PC-3 prostate = test system: PC-3 prostate
HOP-62 NSCLC = test system: HOP-62 NSCLC
NCI-H23 lung = test system: NCI-H23 lung
RPMI-8226 leukemia = test system: RPMI-8226 leukemia
COLO 205 colon = test system: COLO 205 colon
DU-145 prostate = test system: DU-145 prostate
HOP-92 NSCLC = test system: HOP-92 NSCLC
OVCAR-8 ovarian = test system: OVCAR-8 ovarian
SK-MEL-28 melanoma = test system: SK-MEL-28 melanoma
HT29 colon = test system: HT29 colon
UACC-257 melanoma = test system: UACC-257 melanoma
OVCAR-4 ovarian = test system: OVCAR-4 ovarian
NCI-H460 lung = test system: NCI-H460 lung
SN12C renal = test system: SN12C renal
SK-MEL-2 melanoma = test system: SK-MEL-2 melanoma
TK-10 renal = test system: TK-10 renal
SF-539 CNS = test system: SF-539 CNS
A549 NSCLC = test system: A549 NSCLC
HCT-15 colon = test system: HCT-15 colon
CAKI-1 renal = test system: CAKI-1 renal
UACC-62 melanoma = test system: UACC-62 melanoma
UO-31 renal = test system: UO-31 renal
SR leukemia = test system: SR leukemia
HS 578T breast = test system: HS 578T breast
MOLT-4 leukemia = test system: MOLT-4 leukemia
LOX IMVI melanoma = test system: LOX IMVI melanoma
SF-268 CNS = test system: SF-268 CNS
U251 CNS = test system: U251 CNS
NCI/ADR-RES ovarian = test system: NCI/ADR-RES ovarian
SNB-75 CNS = test system: SNB-75 CNS
NCI-H226 lung = test system: NCI-H226 lung
K-562 leukemia = test system: K-562 leukemia
MALME-3M melanoma = test system: MALME-3M melanoma
A498 renal = test system: A498 renal
NCI-H522 lung = test system: NCI-H522 lung
KM12 colon = test system: KM12 colon
OVCAR-3 ovarian = test system: OVCAR-3 ovarian
HCC-2998 colon = test system: HCC-2998 colon
SK-MEL-5 melanoma = test system: SK-MEL-5 melanoma
T-47D breast = test system: T-47D breast
786-0 renal = test system: 786-0 renal
HL-60(TB) leukemia = test system: HL-60(TB) leukemia
ACHN renal = test system: ACHN renal
HCT-116 colon = test system: HCT-116 colon
RXF 393 renal = test system: RXF 393 renal
SNB-19 CNS = test system: SNB-19 CNS

Measured: TGI

CN(/N=C(\C(=O)O)c1ccccc1)C1=NCCCCN1
not listed: SNB-19 CNS
> 100 µM: all other assays above

CC(/C=N/N(C)C1=NCCCN1)=N/N(C)C1=NCCCN1
> 100 µM: all assays above
